Test results reported in ChEMBL document CHEMBL1201862, “PubChem BioAssay data set” (2004).
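Values below derive from 48-hour exposures of cells grown in 96-well plates, with endpoints linearly interpolated between the two concentrations bracketing the appropriate inhibition level. Here, GI50 denotes the concentration required for 50% inhibition of growth.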 Active and inactive are the calls of the source. Rule as the data show it: active = GI50 up to about 1.1 µM and inactive = higher.

Tests used:
Test in all cases: NCI anticancer screen, dose series, 48 h
HOP-62 = system: HOP-62
RXF 393 = system: RXF 393
NCI-H460 = system: NCI-H460
NCI-H23 = system: NCI-H23
HCT-116 = system: HCT-116
UACC-62 = system: UACC-62
NCI-H226 = system: NCI-H226
SF-539 = system: SF-539
COLO 205 = system: COLO 205
HCT-15 = system: HCT-15
A549 = system: A549
SK-MEL-2 = system: SK-MEL-2
HCC 2998 = system: HCC 2998
A498 = system: A498
NCI/ADR-RES = system: NCI/ADR-RES
SNB-75 = system: SNB-75
HOP-92 = system: HOP-92
MDA-MB-435 = system: MDA-MB-435
Hs-578T = system: Hs-578T
M14 = system: M14

Row | SMILES | GI50 (HOP-62) | GI50 (RXF 393) | GI50 (NCI-H460) | GI50 (NCI-H23) | GI50 (HCT-116) | GI50 (UACC-62) | GI50 (NCI-H226) | GI50 (SF-539) | GI50 (COLO 205) | GI50 (HCT-15) | GI50 (A549) | GI50 (SK-MEL-2) | GI50 (HCC 2998) | GI50 (A498) | GI50 (NCI/ADR-RES) | GI50 (SNB-75) | GI50 (HOP-92) | GI50 (MDA-MB-435) | GI50 (Hs-578T) | GI50 (M14)
1 | COc1cc(C2c3cc4c(cc3[C@@H](Nc3ccc(Oc5ccccc5)cc3)C3COC(=O)[C@H]23)OCO4)cc(OC)c1O (some centres not stated) | 0.851 µM (active) | 1.29 µM (inactive) | 0.0867 µM (active) | 1.12 µM (inactive) | 0.979 µM (active) | 0.869 µM (active) | 1.56 µM (inactive) | 0.536 µM (active) | 1.5 µM (inactive) | 1.3 µM | 0.916 µM (active) | > 29.9 µM (inactive) | 1.64 µM (inactive) | 1.24 µM (inactive) | 9.02 µM (inactive) |  |  |  |  | 
2 | CCOC(=O)C1=NN(c2ccc(C)cc2)C2=CC(C)=NN(C)C(=S)N21 |  | 12.6 µM (inactive) | > 100 µM (inactive) | 30.1 µM (inactive) | 31.1 µM (inactive) | 31.9 µM (inactive) |  | 64 µM (inactive) | > 100 µM (inactive) | > 100 µM | 70.6 µM (inactive) | > 100 µM (inactive) | > 100 µM (inactive) |  | > 100 µM (inactive) | 23.1 µM (inactive) | > 10 µM (inactive) | > 100 µM (inactive) | 48.5 µM (inactive) | > 100 µM (inactive)
3 | COc1cc(/N=N\c2cccc(S(=O)(=O)O)c2)ccc1/N=N\c1ccc(/C=C/c2ccc(-n3on3-c3ccc(/C=C/c4ccc(/N=N/c5ccc(/N=N\c6cccc(S(=O)(=O)O)c6)cc5OC)cc4S(=O)(=O)O)c(S(=O)(=O)O)c3)cc2S(=O)(=O)O)c(S(=O)(=O)O)c1 | > 100 µM (inactive) | > 100 µM (inactive) | > 100 µM (inactive) | > 100 µM (inactive) | > 100 µM (inactive) | > 100 µM (inactive) | > 100 µM (inactive) | > 100 µM (inactive) | > 100 µM (inactive) | > 100 µM | > 100 µM (inactive) | > 100 µM (inactive) | > 100 µM (inactive) | > 100 µM (inactive) | > 100 µM (inactive) | 91.8 µM (inactive) | > 86.1 µM (inactive) |  |  | 
4 | CCOC(=O)C(O)(NC(=O)c1ccccc1F)C(F)(F)F (configuration not stated) | > 100 µM (inactive) | > 100 µM (inactive) |  | > 100 µM (inactive) | > 100 µM (inactive) | > 100 µM (inactive) | > 100 µM (inactive) | > 100 µM (inactive) | > 100 µM (inactive) | > 100 µM | > 100 µM (inactive) | > 100 µM (inactive) | > 100 µM (inactive) |  | > 100 µM (inactive) | > 100 µM (inactive) | > 100 µM (inactive) | > 100 µM (inactive) | > 100 µM (inactive) | > 100 µM (inactive)
5 | COC(=O)C(C)NP(=O)(N1CC1)N1CC1 (configuration not stated) |  | > 100 µM (inactive) |  | 97.3 µM (inactive) |  | 61.8 µM (inactive) |  | > 100 µM (inactive) | > 100 µM (inactive) | > 100 µM | > 100 µM (inactive) | > 100 µM (inactive) | > 100 µM (inactive) | > 100 µM (inactive) |  | > 100 µM (inactive) |  |  |  | 83 µM (inactive)
6 | O=C(Nc1ccc2[nH]c3c(-c4ccccc4)nccc3c2c1)c1ccccc1[N+](=O)[O-] |  | 1.83 µM (inactive) | 3.45 µM (inactive) | 4.37 µM (inactive) | 5.71 µM (inactive) |  | 2.3 µM (inactive) | 1.37 µM (inactive) | 3.45 µM (inactive) | 1.53 µM | 4.88 µM (inactive) | 4.09 µM (inactive) | 3.58 µM (inactive) | 3.24 µM (inactive) |  | 2.47 µM (inactive) | 3.56 µM (inactive) |  |  | 2.99 µM (inactive)
7 | CCOC(=O)Cc1cnc(NC(NC(=O)CC)(C(F)(F)F)C(F)(F)F)s1 | > 100 µM (inactive) | > 100 µM (inactive) | > 100 µM (inactive) | > 100 µM (inactive) | > 100 µM (inactive) | > 100 µM (inactive) | > 100 µM (inactive) | > 100 µM (inactive) |  | > 100 µM |  | > 100 µM (inactive) | 93.3 µM (inactive) | > 100 µM (inactive) |  | > 100 µM (inactive) |  | > 100 µM (inactive) | > 100 µM (inactive) | > 100 µM (inactive)
8 | N/C(=N\O)N/N=C\c1ccc(O)c(O)c1O | > 41.1 µM (inactive) | 18.9 µM (inactive) | 17.1 µM (inactive) | 24.4 µM (inactive) | 27.5 µM (inactive) | 17.3 µM (inactive) | 39.1 µM (inactive) | > 100 µM (inactive) | 12.9 µM (inactive) | 19.2 µM | > 58.7 µM (inactive) | > 46 µM (inactive) | 36.9 µM (inactive) | > 30.8 µM (inactive) | 19.5 µM (inactive) | 17.3 µM (inactive) | > 55.3 µM (inactive) |  |  | 
9 | O=C1c2cc3c(cc2CC1Cc1ccc2c(c1)CCC2)CCC3 (configuration not stated) | 72.4 µM (inactive) | 57.7 µM (inactive) | 34.4 µM (inactive) | 44.7 µM (inactive) | 38.6 µM (inactive) | 52 µM (inactive) | 24.2 µM (inactive) | 33.3 µM (inactive) | 25 µM (inactive) | 47.5 µM | 64.4 µM (inactive) | 48.8 µM (inactive) | 36.7 µM (inactive) | 32.3 µM (inactive) | 65.3 µM (inactive) | 13.4 µM (inactive) |  | 76 µM (inactive) | 32.4 µM (inactive) | > 100 µM (inactive)
10 | COc1ccc([C@H]2c3cc4c(cc3OC(O)(CO)[C@H]2C(=O)O)OCO4)c(OC)c1.COc1ccc([C@H]2c3cc4c(cc3OC3(O)COC(=O)[C@@H]23)OCO4)c(OC)c1 (some centres not stated) | > 100 µM (inactive) | > 100 µM (inactive) | > 100 µM (inactive) | > 100 µM (inactive) | > 100 µM (inactive) | 41.5 µM (inactive) | > 100 µM (inactive) | > 100 µM (inactive) | > 100 µM (inactive) | 37.6 µM | > 100 µM (inactive) | > 100 µM (inactive) | > 100 µM (inactive) | > 100 µM (inactive) |  | 43.5 µM (inactive) | > 100 µM (inactive) |  |  | > 100 µM (inactive)
11 | C=CCCC(On1c(-c2ccc(Cl)cc2)csc1=S)c1ccccc1 (configuration not stated) | 90.6 µM (inactive) | 29.7 µM (inactive) |  | 39.4 µM (inactive) | 7.03 µM (inactive) | 36.7 µM (inactive) | 26.7 µM (inactive) | 26.9 µM (inactive) | 22.5 µM (inactive) | 8.05 µM | 31.2 µM (inactive) | 14.9 µM (inactive) |  | > 100 µM (inactive) | 13.7 µM (inactive) |  | 40.6 µM (inactive) | 4.56 µM (inactive) | 34.4 µM (inactive) | 13.9 µM (inactive)
12 | O=C(Nc1cccc([N+](=O)[O-])c1)C(=O)C(C(=O)c1ccccc1F)C1OC(=O)C2C=CC=CC21 (configuration not stated) | 50.9 µM (inactive) | 18.5 µM (inactive) | 40.9 µM (inactive) | 25.1 µM (inactive) | 19.4 µM (inactive) | 28 µM (inactive) | 13.4 µM (inactive) | 24 µM (inactive) | 35.2 µM (inactive) | 27.5 µM | 37.5 µM (inactive) | 30.3 µM (inactive) | 36.1 µM (inactive) | 96.6 µM (inactive) |  | 28.7 µM (inactive) | > 100 µM (inactive) |  |  | 38 µM (inactive)
13 | CC1(C)N=C(/C(Cl)=[N+](/[O-])C(=O)c2ccc(Cl)cc2)C(C)(C)N1O | 39 µM (inactive) | 22 µM (inactive) | 45.5 µM (inactive) | 22.1 µM (inactive) | 16.3 µM (inactive) | > 10 µM (inactive) | 25.9 µM (inactive) | 21.3 µM (inactive) | 17 µM (inactive) | 19.8 µM | > 100 µM (inactive) | 52.7 µM (inactive) | 25.9 µM (inactive) |  | 25.9 µM (inactive) |  | 17.3 µM (inactive) | 22.3 µM (inactive) | 36.2 µM (inactive) | 18.2 µM (inactive)
14 | CNC(=O)OC(C)CN1c2ccccc2Sc2ccc(Cl)cc21 (configuration not stated) | > 10 µM (inactive) | > 10 µM (inactive) | > 10 µM (inactive) | > 10 µM (inactive) | > 10 µM (inactive) | > 10 µM (inactive) | > 10 µM (inactive) | > 10 µM (inactive) | > 10 µM (inactive) | > 10 µM | > 10 µM (inactive) | > 10 µM (inactive) | > 10 µM (inactive) | > 10 µM (inactive) | > 10 µM (inactive) | > 10 µM (inactive) |  | > 10 µM (inactive) | > 10 µM (inactive) | > 10 µM (inactive)
15 | COc1ccc(/C(Cl)=C(\CN(C)C)c2ccc(OC)c(OC)c2)cc1OC |  |  | > 100 µM (inactive) | > 100 µM (inactive) |  | > 100 µM (inactive) | > 100 µM (inactive) | > 100 µM (inactive) | > 100 µM (inactive) | > 100 µM |  | 55.6 µM (inactive) |  | > 100 µM (inactive) |  |  |  |  |  | 
16 | CSc1nc(NC2OCC(OC(C)=O)C(OC(C)=O)C2OC(C)=O)c(/N=C(\C)C(C)=O)c(=O)[nH]1 (configuration not stated) |  | > 100 µM (inactive) | > 100 µM (inactive) | > 100 µM (inactive) | > 100 µM (inactive) |  | 0.164 µM (active) | > 100 µM (inactive) | > 100 µM (inactive) | > 100 µM | > 100 µM (inactive) | > 100 µM (inactive) |  | > 100 µM (inactive) |  | > 100 µM (inactive) | > 100 µM (inactive) |  |  | > 100 µM (inactive)
